Experimental data taken from paper PMC3265452 (PLoS Neglected Tropical Diseases, 2012).
Counter-ions that a name gives are not always drawn.

target: AaDOP2 (Aedes aegypti, UniProt H6D5H2); test: AaDOP2 antagonist screen of the LOPAC1280 library (HEK-CRELuc-Aadop2 cells, luminescence); type: cell-based; details: not given
Sequence (H6D5H2 1-476): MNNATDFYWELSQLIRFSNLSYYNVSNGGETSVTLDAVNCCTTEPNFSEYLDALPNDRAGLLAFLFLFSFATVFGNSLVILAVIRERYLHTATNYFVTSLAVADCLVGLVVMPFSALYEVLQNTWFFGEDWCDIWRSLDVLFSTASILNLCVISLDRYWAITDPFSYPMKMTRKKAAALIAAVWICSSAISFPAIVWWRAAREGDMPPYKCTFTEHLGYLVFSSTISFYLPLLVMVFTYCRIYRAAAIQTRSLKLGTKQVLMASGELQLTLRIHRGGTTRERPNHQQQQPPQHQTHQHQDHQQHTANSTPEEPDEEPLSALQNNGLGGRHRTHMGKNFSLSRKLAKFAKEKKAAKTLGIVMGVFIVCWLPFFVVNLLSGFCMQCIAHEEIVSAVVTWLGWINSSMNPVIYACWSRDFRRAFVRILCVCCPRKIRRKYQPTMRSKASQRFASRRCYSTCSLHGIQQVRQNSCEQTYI

Row | Compound | Compound effect (percent receptor signaling in presence of test compound, relative lux units relative to the SCH23390 control)
1 | CCCCCCN(CCCCCC)C(=O)Cc1c(-c2ccc(F)cc2)[nH]c2ccccc12 [Compound 422, N,N-Dihexyl-2-(4-fluorophenyl)indole-3-acetamide] | 93
2 | VER-3323 hemifumarate salt [Compound 706] | 82
3 | CC(NCCc1ccc(O)cc1)C(O)c1ccc(O)cc1 (centres unmarked) [Compound 1041, Ritodrine hydrochloride] | 119
4 | COc1cccc(C(=O)NCCN2CCN(c3ccc(Cl)cc3)CC2)c1 [Compound 293, N-(2-[4-(4-Chlorophenyl)piperazin-1-yl]ethyl)-3-methoxybenzamide] | 95
5 | COc1cc2nc(N3CCN(C(=O)c4ccco4)CC3)nc(N)c2cc1OC [Compound 973, Prazosin hydrochloride] | 81
6 | CN(Cc1cnc2nc(N)nc(N)c2n1)c1ccc(C(=O)N[C@@H](CCC(=O)O)C(=O)O)cc1 [Compound 114, (-)Amethopterin] | 116
7 | Cn1cnc2c(NCc3ccccc3)nc(NCCO)nc21 [Compound 897, Olomoucine] | 47
8 | CCN(CC)CC#CCOC(=O)C(O)(c1ccccc1)C1CCCCC1 (centres unmarked) [Compound 901, Oxybutynin Chloride] | 83
9 | CC1CNCCN1S(=O)(=O)c1cccc2cnccc12.Cl.Cl (centres unmarked) [Compound 653, 1-(5-Isoquinolinylsulfonyl)-2-methylpiperazine dihydrochloride] | 29
10 | O=C(/C=C/c1ccc(O)c(O)c1)OCCc1ccccc1 [Compound 307, Caffeic acid phenethyl ester] | 147
11 | C=CCN1CC[C@@]2(C)c3cc(O)ccc3C[C@@H]1[C@@H]2C.Cl (racemic) [Compound 131, (±)-N-Allylnormetazocine hydrochloride] | 105
12 | N#CC(C#N)=Cc1ccc([N+](=O)[O-])c(O)c1 [Compound 1216, Tyrphostin AG 126] | 100
13 | N.N.N.N.N.N.N.N.N.N.N.N.N.N.[Cl-].[Cl-].[Cl-].[Cl-].[Cl-].[Cl-].[O-2].[O-2].[Ru+3].[Ru+3].[Ru+4] [Compound 1044, Ruthenium red] | 61
14 | CO/N=C(\C(=O)N[C@@H]1C(=O)N2C(C(=O)O)=C(COC(C)=O)CS[C@H]12)c1csc(N)n1 [Compound 300, Cefotaxime sodium] | 93
15 | CN(Cc1cnc2nc(N)nc(N)c2n1)c1ccc(C(=O)N[C@@H](CCC(=O)O)C(=O)O)cc1 [Compound 74, Methotrexate] | 89
16 | (-)-Bicuculline methbromide, 1(S), 9(R) [Compound 202] | 94
17 | CC12CC3CC(C)(C1)CC(N)(C3)C2 [Compound 807, Memantine hydrochloride] | 91
18 | CNCCc1c[nH]c2ccc(O)cc12.O=C(O)C(=O)O [Compound 739, N-omega-Methyl-5-hydroxytryptamine oxalate salt] | 115
19 | CCCN(CCC)C(=O)Cc1c(-c2ccc(Cl)cc2)nc2c(Cl)cc(Cl)cn12 [Compound 289, CB34] | 106
20 | O=C(N[C@@H](Cc1ccccc1)C(=O)CCl)OCc1ccccc1 [Compound 317, Z-L-Phe chloromethyl ketone] | 124

Row | Compound | Compound effect (percent receptor signaling in presence of test compound, relative lux units relative to the SCH23390 control)
21 | CC(=N)NCCC[C@H](N)C(=O)O.Cl [Compound 661, L-N5-(1-Iminoethyl)ornithine hydrochloride] | 102
22 | Nc1nc(N)c2nc(CNc3ccc(C(=O)N[C@@H](CCC(=O)O)C(=O)O)cc3)cnc2n1 [Compound 28, Aminopterin] | 112
23 | COc1ccc2c(c1)CC[C@@H]1[C@@H]2CC[C@]2(C)[C@@H](NCCCCCCN3C(=O)C=CC3=O)CC[C@@H]12 [Compound 1236, U-73122] | 80
24 | O=c1onc2n1-c1cc(Br)ccc1OC2 [Compound 893, NS 2028] | 98
25 | CCN(CC)CCNC(=O)c1cc(S(C)(=O)=O)ccc1OC [Compound 1145, Tiapride hydrochloride] | 96
26 | Nc1c(S(=O)(=O)O)cc(Nc2ccc(Nc3nc(Cl)nc(Nc4cccc(S(=O)(=O)O)c4)n3)c(S(=O)(=O)O)c2)c2c1C(=O)c1ccccc1C2=O [Compound 1066, Reactive Blue 2] | 93
27 | NC(=O)OCC(COC(N)=O)c1ccccc1 [Compound 509, Felbamate] | 113
28 | CCCn1c(=O)c2[nH]c(-c3ccc(OCC(=O)NCCN)cc3)nc2n(CCC)c1=O [Compound 1272, Xanthine amine congener] | 90
29 | CN1[C@@H]2CC[C@H]1C[C@@H](OC(=O)c1cc(Cl)cc(Cl)c1)C2 [Compound 1211, 3-Tropanyl-3,5-dichlorobenzoate] | 97
30 | CCN(CC)C(C)C(=O)N1c2ccccc2Sc2ccccc21.Cl (stereo not drawn) [Compound 324, 10-(alpha-Diethylaminopropionyl)-phenothiazine hydrochloride] | 56
31 | NC(=O)c1cc(N2CC2)c([N+](=O)[O-])cc1[N+](=O)[O-] [Compound 236, CB 1954] | 81
32 | COc1ccc(CCN)cc1O.Cl [Compound 586, 4-Methoxy-3-hydroxyphenethylamine hydrochloride] | 130
33 | C[C@H](O)C(=O)C1=Nc2c(nc(N)[nH]c2=O)NC1 [Compound 1137, Sepiapterin] | 110
34 | CCCCCCCCCCCCCCCC(=O)NCCO [Compound 915, Palmitoylethanolamide] | 89
35 | CCOC(=O)C(C)(C)Oc1ccc(Cl)cc1 [Compound 287, Clofibrate] | 74
36 | CC(C)c1ccc2c(c1)c(SC(C)(C)C)c(CC(C)(C)C(=O)O)n2Cc1ccc(Cl)cc1 [Compound 750, MK-886] | 65
37 | COc1ccc(C(=O)N2CCCC2=O)cc1 [Compound 116, Aniracetam] | 101
38 | Cl.c1ccc2c(N3CCNCC3)cccc2c1 [Compound 1127, 1-(1-Naphthyl)piperazine hydrochloride] | 79
39 | O=C1CCc2cc(OCCCCc3nnnn3C3CCCCC3)ccc2N1 [Compound 222, Cilostazol] | 108
40 | N[C@@H](Cc1c[nH]c2ccccc12)C(=O)O [Compound 1143, L-Tryptophan] | 114

same assay, conditions: 10 µM compound, 300 nM dopamine, 2 hr; hit = compound effect <20

Row | Compound | Compound effect (percent receptor signaling in presence of test compound, relative lux units relative to the SCH23390 control)
41 | CC(Cc1ccc(O)c(O)c1)C(C)Cc1ccc(O)c(O)c1 (centres unmarked) [Compound 856, Nordihydroguaiaretic acid from Larrea divaricata (creosote bush)] | 64%
42 | COc1cc(C(O)CO)ccc1OS(=O)(=O)[O-].[K+] (centres unmarked) [Compound 607, MHPG sulfate potassium] | 131%
43 | CCN(CC)C(=O)N[C@H]1C[C@@H]2c3cccc4[nH]cc(c34)C[C@H]2N(C)C1 [Compound 1228, R(+)-Terguride] | 73%
44 | O=C([O-])CCC(NC(=O)c1ccccc1C(=O)[O-])C(=O)[O-].[Na+].[Na+].[Na+] [Compound 1022, Phthalamoyl-L-glutamic acid trisodium] | 97%
45 | Br.CCCN(CCC)[C@@H]1CCc2ccc(O)cc2C1 [Compound 625, R-(+)-7-Hydroxy-DPAT hydrobromide] | 85%
46 | Cl.Nc1ccn([C@@H]2O[C@H](CO)[C@@H](O)[C@@H]2O)c(=O)n1 [Compound 288, Cytosine-1-beta-D-arabinofuranoside hydrochloride] | 92%
47 | Br.Br.N=C(N)NCCSSCCNC(=N)N [Compound 553, Guanidinoethyl disulfide dihydrobromide] | 105%
48 | CCCCCCCCCCC/C=C\C(C)(C)/C=C\CCCC(=O)O [Compound 415, 7,7-Dimethyl-(5Z,8Z)-eicosadienoic acid] | 82%
49 | CCCC(C(=O)OCCN(CC)CC)(c1ccccc1)c1ccccc1.Cl [Compound 923, SKF-525A hydrochloride] | 88%
50 | Cc1cccc(C)c1OCC(C)N.Cl (centres unmarked) [Compound 751, Mexiletene hydrochloride] | 105%
